From patent US20220241378A1, “COMPOSITIONS AND METHODS FOR TREATMENT OF CHRONIC GRANULOMATOUS DISEASE” (priority 2019, published 2022)

System: p47phox-/- mice infected intranasally with A. fumigatus conidia
Assay: Survival of p47phox-/- mice infected intranasally with A. fumigatus conidia
Assay type: in vivo
Experimental: To determine whether Tβ4 ameliorates tissue and immune pathologies in CGD mice the inventors of the present disclosure conducted experiments measuring the effect of Tβ4 in mice with aspergillosis and colitis. Specifically, mice were monitored for fungal growth, antifungal activity of effector cells, survival, lung histopathology, innate and adaptive Th immunity. […] Gross lung pathology and histological examination was conducted on p47phox-/- mice. […] Conversely, Tβ4 deficiency by means of siTβ4 administration promoted lung pathology in C57BL/6 mice (FIG. 10B).
Viable conidia from the A. fumigatus Af293 strain were obtained as described (De Luca et al., 2012). Mice were anesthetized in a plastic cage by inhalation of 3% isoflurane (Forane Abbot) in oxygen before intranasal instillation of 2×10^7 resting conidia/20 μl saline. For survival curves, p47^phox-/- mice were challenged with […] conidia/20 μl saline. […] Fungal burden was determined by qPCR and expressed as conidial equivalents (CE). […] Fungal burden was quantified by qPCR by using the sequences for the multicopy 18S ribosomal DNA gene. […]
GraphPad Prism 6.01 program (GraphPad Software) was used for analysis. Data are expressed as mean ±SD. Statistical significance was calculated by two-way ANOVA (Tukey's or Bonferroni's post hoc test) for multiple comparisons. […] Cell fluorescence intensity was measured by using the ImageJ software.

## Thymosin β4 [Tβ4]
p47phox-/- mice treated for 5 days (FIG. 9)
  mice survived at the time when all untreated mice had died: more than 50%
p47phox-/- mice treated for 5 days vs untreated (FIG. 9)
  survival of infected mice: significantly increased
